Experimental data taken from article PMC4890880 (ACS infectious diseases, 2016).
pIC50: −log10 of the molar value. Where two headings read alike, the source gives them in different places.

Tests used:
[1] = test system: HepG2-A16-CD81EGFP cells; assay: cells; conditions: Homo sapiens; for pIC50: HepG2, read-out: Tox IC50; for inhibition at 50 µM: HepG2, read-out: Tox max inhibition (%) @ 50 uM
[2] = test system: Plasmodium berghei (Pb-Luc) exoerythrocytic-stage parasites; assay: microbe, parasite or virus in culture
[3] = HepG2, read-out: HepG2 Tox% @ 50 uM rep1
[4] = HepG2, read-out: HepG2 Tox% @ 50 uM rep2
[5] = read-out: Inhibition% @ 50 uM rep1
[6] = read-out: Inhibition% @ 50 uM rep2
[7] = read-out: PbLuc IC50, dose response, unit inferred
[8] = read-out: PbLuc max inhibition (%) @ 50 uM
[9] = read-out: PbLuc IC50, dose response, 1/3 dilutions, max conc. 10 or 50 uM, unit inferred

Structure (SMILES)	cytotoxicity at 50 µM [1, 3]	cytotoxicity at 50 µM [1, 4]	inhibition at 50 µM [2, 5]	inhibition at 50 µM [2, 6]	pIC50 [1]	inhibition at 50 µM [1]	pIC50 [2, 7]	inhibition at 50 µM [2, 8]	pIC50 [2, 9]
Cc1cc(C)c2nc(N3CCC(C(=O)NCCCN4CCC(N5CCCCC5)CC4)CC3)sc2c1 [MMV019780]	98%	98%	101%	101%	–	–	–	–	–
CC(C)(C)C(=O)Nc1ccc(C(=O)Nc2cccc(-c3nc4ccccc4[nH]3)c2)cc1 [MMV665879]	99%	100%	102%	103%	–	–	–	–	–
CC1CC(C)CN(C(=O)c2ccc(Cl)cc2Cl)C1 (centres unmarked) [MMV001344]	74%	88%	98%	98%	–	–	–	–	–
Cc1ccc(-c2cc3c(nn2)-c2ccccc2C3=O)cc1 [MMV666021]	31%	9%	99%	89%	–	–	–	–	–
O=C(NNc1cc(N2CCCC2)nc(N2CCCC2)n1)c1ccccc1 [MMV396770]	29%	–	97%	98%	–	–	–	–	–
c1ccc(C2=Nc3ccccc3N=C(c3ccccc3)c3ccccc32)cc1 [MMV007113]	22%	–	94%	95%	< 4.30	15%	< 4.30	40%	–
Cc1cc(C=C2SC(=Nc3ccccc3)N(C3CCCC3)C2=O)c(C)n1-c1ccc(Cl)cc1 [MMV666688]	-4.47%	-11%	14%	0.839%	–	–	–	–	–
COc1ccccc1N=C1C(=O)c2ccccc2C(O)=C1N1CCCCC1 [MMV085203]	94%	97%	103%	105%	5.50	96%	–	100%	6.25
Cc1ccc(C2CC(C(F)(F)F)n3nc(C(=O)N4CCN(C(c5ccccc5)c5ccccc5)CC4)cc3N2)cc1 (centres unmarked) [MMV000699]	49%	–	102%	101%	–	–	–	–	–
COc1ccc(C2c3ccc4ccccc4c3Oc3ncn(CCCn4ccnc4)c(=N)c32)cc1OC (centres unmarked) [MMV667490]	102%	–	104%	104%	–	–	–	–	–
CN1CCN(c2ccc(Nc3c4ccccc4nc4ccccc34)cc2)CC1 [MMV006172]	97%	99%	104%	106%	5.29	94%	–	99%	5.46
O=C(Nc1ccc(CN2CCOCC2)cc1)c1ccc(-c2ccc(Br)cc2)o1 [MMV665901]	101%	102%	104%	106%	–	–	–	–	–
CC(NCc1ccccc1)c1cc(Cl)ccc1O (centres unmarked) [MMV665789]	72%	89%	103%	100%	–	–	–	–	–
CC1=C(CC(=O)c2cccc([N+](=O)[O-])c2)C(=O)c2ccccc2C1=O [MMV666125]	100%	–	103%	104%	4.68	99%	–	99%	5.37
Clc1ccc2[nH]c3c(NCCCN4CCOCC4)ncnc3c2c1 [MMV006587]	95%	98%	101%	100%	–	–	–	–	–
CC(C)(C)c1ccc2c(c1)CN(Cc1ccc(Cl)cc1)CO2 [MMV000442]	97%	–	100%	101%	–	–	–	–	–
O=C(O)C1Cc2c([nH]c3ccccc23)C(c2ccc(Cl)cc2Cl)N1 (centres unmarked) [MMV008138]	49%	53%	88%	91%	–	–	–	–	–
Cc1cc(=O)oc2c1ccc1oc(C(=O)c3ccccc3)c(C)c12 [MMV006753]	37%	–	102%	103%	–	–	–	–	–
COc1cc(C(=O)ON=C(N)Cc2cccc3ccccc23)cc(OC)c1OC [MMV666687]	100%	–	102%	103%	4.77	100%	–	100%	4.90
CCOC(=O)C1=CN(C)C=C(C(=O)OCC)C1c1cc(Br)c(OCC)c(OC)c1 [MMV006656]	50%	–	103%	103%	< 4.30	31%	–	99%	5.08

Structure (SMILES)	cytotoxicity at 50 µM [1, 3]	cytotoxicity at 50 µM [1, 4]	inhibition at 50 µM [2, 5]	inhibition at 50 µM [2, 6]	pIC50 [1]	inhibition at 50 µM [1]	pIC50 [2, 7]	inhibition at 50 µM [2, 8]	pIC50 [2, 9]
c1ccc(CNc2nc(Nc3ccccc3)nc3ccccc23)cc1 [MMV006169]	101%	–	103%	104%	–	–	–	–	–
CCN(CC)CCn1c(=N)n(CC(O)c2ccc(Cl)c(Cl)c2)c2ccccc21 (centres unmarked) [MMV000248]	101%	102%	103%	105%	4.57	98%	–	99%	5.07
O=C(NCCCN1CCC(N2CCCCC2)CC1)C1=Cc2cc(Br)ccc2OC1 [MMV019995]	100%	–	102%	102%	–	–	–	–	–
O=C(Nc1ccc(F)c(Cl)c1)Nc1ccc(Cl)c(Cl)c1 [MMV665953]	97%	98%	103%	102%	5.30	99%	–	101%	6.07
Cc1ccc2cc3c(N)c4c(C)ccc(C)c4nc3nc2c1 [MMV666079]	97%	–	103%	104%	< 4.30	12%	4.50	74%	–
Cc1sc(NC(=O)c2ccco2)c(C(c2cccnc2)N2CCC(Cc3ccccc3)CC2)c1C (centres unmarked) [MMV396663]	82%	–	103%	103%	–	–	–	–	–
O=C(CSc1nccn2nc(-c3ccccc3)cc12)Nc1cc(C(F)(F)F)ccc1Cl [MMV396678]	-13%	-3%	68%	82%	–	–	–	–	–
COc1ccc(NC(=O)C2c3ccccc3C(=O)N(CC(C)C)C2c2cccs2)cc1Cl (centres unmarked) [MMV000642]	50%	30%	104%	106%	< 4.30	24%	–	97%	4.77
CCOC(=O)c1cnc2ccc(OC)cc2c1Nc1ccc(N2CCN(C)CC2)cc1 [MMV000704]	97%	–	101%	102%	–	–	–	–	–
CC(=O)c1sc(NC(=O)Nc2ccc(C)cc2C)nc1C [MMV665894]	-26%	–	3.42%	-0.396%	–	–	–	–	–
Cc1cc(Nc2ccc(C)c(Cl)c2)n2nc(C(F)(F)F)nc2n1 [MMV665874]	93%	95%	102%	102%	–	–	–	–	–
CCCCNc1nc(NC(C)(C)C)nc(NC(C)(C)C)n1 [MMV665864]	41%	–	94%	94%	< 4.30	41%	–	89%	4.81
CCCOCc1cc(CN2CCN(c3cccc(Cl)c3)CC2)c(O)c2ncccc12 [MMV000787]	93%	–	100%	100%	5.46	100%	–	101%	6.03
COc1ccc(C(=O)C(CCC(CNC(C)(C)C)C(=O)c2ccc(OC)cc2)CNC(C)(C)C)cc1 (centres unmarked) [MMV007591]	101%	–	103%	104%	4.60	92%	–	99%	5.14
CC(C)(C)CC(C)(C)NCC(O)COc1ccc(Cl)cc1Cl (centres unmarked) [MMV396794]	99%	100%	101%	104%	4.82	93%	–	92%	4.82
COc1ccc2c(c1)OC(O)(C(F)(F)C(F)(F)F)CC2=O (centres unmarked) [MMV007839]	96%	96%	102%	98%	–	–	–	–	–
FC(F)(F)c1cccc(Nc2nc3ccccc3nc2Nc2cccc(C(F)(F)F)c2)c1 [MMV665794]	100%	–	103%	102%	5.72	102%	–	100%	6.18
O=C(NC1CCN(Cc2ccccc2)CC1)c1cc(C(=O)NC2CCN(Cc3ccccc3)CC2)cc(C(=O)NC2CCN(Cc3ccccc3)CC2)c1 [MMV019881]	101%	–	104%	104%	< 4.30	60%	–	94%	4.83
CN(N=O)C1=C(NC2CCCCC2)C(=O)c2ccccc2C1=O [MMV667492]	98%	–	103%	104%	–	–	–	–	–
CCOc1ccc(CN2CCN(CC(O)COc3ccc(OCC(O)CN4CCN(Cc5ccc(OCC)cc5)CC4)cc3)CC2)cc1 (centres unmarked) [MMV007092]	98%	–	103%	104%	4.38	65%	–	99%	4.91
